Experimental findings from US20220204491A1, “FXR (NR1H4) MODULATING COMPOUNDS” (Gilead Sciences, Inc., priority 2019, published 2022) are described below.

This assay deals with T1, human FXR alpha ligand binding domain (LBD) (Homo sapiens, UniProt Q96RI1).
T1 construct: made in house; host or cells: E. coli BL21(DE3), vector pDEST15
T1 sequence (Q96RI1 187-472 isoform Q96RI1-2): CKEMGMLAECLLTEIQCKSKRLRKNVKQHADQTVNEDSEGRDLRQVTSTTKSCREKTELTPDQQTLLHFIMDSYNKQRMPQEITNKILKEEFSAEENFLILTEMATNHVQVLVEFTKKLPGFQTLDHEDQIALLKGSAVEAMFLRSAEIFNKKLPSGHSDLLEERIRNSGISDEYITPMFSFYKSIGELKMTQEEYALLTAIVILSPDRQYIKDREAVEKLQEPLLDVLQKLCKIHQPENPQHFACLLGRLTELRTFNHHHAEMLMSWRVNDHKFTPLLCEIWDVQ
The experiment in a line: FRET activity assay (FXR-LBD / SRC-1 cofactor peptide interaction, LANCE). It counts as biochemical. As to conditions: GST-FXR-LBD, biotinylated SRC-1 peptide 676-700. As for the experimental part:
Determination of a ligand mediated cofactor peptide interaction to quantify ligand binding to the nuclear receptor FXR was performed as follows.
Preparation of human FXR alpha ligand binding domain (LBD): The human FXRalpha LBD was expressed in E. coli strain BL21(DE3) as an N-terminally GST tagged fusion protein. The DNA encoding the FXR ligand binding domain was cloned into vector pDEST15 (Invitrogen). Expression was under control of an IPTG inducible T7 promoter. The amino acid boundaries of the ligand binding domain were amino acids 187-472 of Database entry NM 005123 (RefSeq). Expression and purification of the FXR-LBD: An overnight preculture of a transformed E. coli strain was diluted 1:20 in LB-Ampicillin medium and grown at 30° C. to an optical density of OD600=0.4−0.6. Gene expression was then induced by addition of 0.5 mM IPTG. Cells were incubated an additional 6 h at 30° C., 180 rpm. Cells were collected by centrifugation (7000×g, 7 minutes, room temperature). […] The protein was analysed by SDS-Page.
The method measures the ability of putative ligands to modulate the interaction between the purified bacterially expressed FXR ligand binding domain (LBD) and a synthetic biotinylated peptide based on residues 676-700 of SRC-1 (LCD2, 676-700). […] The ligand binding domain (LBD) of FXR was expressed as fusion protein with GST in BL-21 cells using the vector pDEST15. […] For ease of handling and reduction of background from compound fluorescence LANCE technology makes use of generic fluorophore labels and time resolved detection Assays were done in a final volume of 25 μL in a 384 well plate, in a Tris-based buffer (20 mM Tris-HCl pH 7.5; 60 mM KCl, 5 mM MgCl2; 35 ng/μL BSA), containing 20-60 ng/well recombinantly expressed FXR-LBD fused to GST, 200-600 nM N-terminally biotinylated peptide, representing SRC1 aminoacids 676-700, 200 ng/well Streptavidin-xlAPC conjugate (Prozyme) and 6-10 ng/well Eu W1024-antiGST (Perkin Elmer). […] The LANCE signal was detected by a Perkin Elmer VICTOR2VTM Multilabel Counter. […]
(Time-resolved FRET reads energy transfer from a long-lived donor to a nearby acceptor.)

In general, EC50 refers to the concentration giving half of the maximal effect. On to `O=C(O)c1ccc(N2CC(O)(c3ccc(OCc4c(-c5c(Cl)cccc5Cl)noc4C4CC4)cc3Cl)C2)nc1` [Comparative Example 2], for which it took 3.4 nM to reach a half-maximal effect (EC50).

For `O=C(O)c1cnc(N2CC(O)(c3ccc(OCc4c(-c5c(Cl)cc(F)cc5Cl)noc4C4CC4)cc3Cl)C2)c(F)c1` [Comparative Example 1, 6-(3-(2-chloro-4-((5-cyclopropyl-3-(2,6-dichloro-4-fluorophenyl)isoxazol-4-yl)methoxy)phenyl)-3-hydroxyazetidin-1-yl)-5-fluoronicotinic acid], the response was half-maximal at 7.5 nM (EC50).

Take `O=C(O)c1ccc(N2CC(O)(c3ccc(OCc4c(-c5c(Cl)cc(F)cc5Cl)noc4C4CC4)cc3Cl)C2)nc1` [Example 1, 6-(3-(2-chloro-4-((5-cyclopropyl-3-(2,6-dichloro-4-fluorophenyl)isoxazol-4-yl)methoxy)phenyl)-3-hydroxyazetidin-1-yl)nicotinic acid]: a half-maximal response (EC50) required 14.2 nM.
